Source: ChEMBL document CHEMBL6103657, “Discovery of a Potent SARM1 Base-Exchange Inhibitor with In Vivo Efficacy” (J Med Chem, 2025)

How the values were obtained:
[1] = physchem; details: buffer, pH 6.5
[2] = physchem; details: octanol/aqueous buffer, pH 7.4

Compound | solubility [1] [µg/mL] | logD [2]
CN(Cc1ccncc1)C(=O)NC1COCC1(F)F (stereo unspecified) | > 271 | 0.3
CC[C@@H](c1ccncc1)N(C)C(=O)N[C@@H]1COCC1(F)F | > 299 | 0.73
C[C@@H](c1ccncc1)N(C)/C(=N\C#N)NC1COCC1(F)F (stereo partly specified) | > 309 | 0.9
